# System: Mycobacterium tuberculosis
# Assay: Antimycobacterial activity against Mycobacterium tuberculosis H37Rv ATCC 27294 after 4 days by microplate Alamar blue assay
# Format: functional
# Conditions: H37Rv ATCC 27294, 96 h
row,Compound,MIC [µg/mL]
1,CCN(C)C(=O)/C=C/C(=O)c1ccc([N+](=O)[O-])cc1,1.7
2,CCCN(CCC)C(=O)/C=C/C(=O)c1ccccc1Cl,> 2
3,CN(C)C(=O)/C=C/C(=O)c1ccccc1[N+](=O)[O-],1.51
4,COc1ccccc1C(=O)/C=C/C(=O)N(C)C,0.92
5,NNC(=O)c1ccncc1 [ISONIAZID],0.025
6,COc1ccccc1C(=O)/C=C/C(=O)O,> 4
7,CCN(C)C(=O)/C=C/C(=O)c1cccc(Br)c1,1.52
8,COc1ccc(C(=O)/C=C/C(=O)OC(C)C)cc1,1.64
9,COC(=O)/C=C/C(=O)c1ccc([N+](=O)[O-])cc1,0.54
10,CCOC(=O)/C=C/C(=O)c1ccc([N+](=O)[O-])cc1,0.48
11,CCN(C)C(=O)/C=C/C(=O)c1ccc(-c2ccccc2)cc1,0.49
12,COC(=O)/C=C/C(=O)c1ccc(C)cc1,0.37
13,CN(C)C(=O)/C=C/C(=O)c1cccc(Cl)c1,0.89
14,CCCN(CCC)C(=O)/C=C/C(=O)c1ccc(OCC)cc1,1.91
15,CCN(C)C(=O)/C=C/C(=O)c1cccc(C(F)(F)F)c1,> 2
16,CCOC(=O)/C=C/C(=O)c1ccc(-c2ccccc2)cc1,0.23
17,COC(=O)/C=C/C(=O)c1ccc2c(c1)OCO2,0.38
18,CCOC(=O)/C=C/C(=O)c1ccc(Br)cc1,0.52
19,COc1ccccc1C(=O)/C=C/C(=O)OC(C)C,1.91
20,COC(=O)/C=C/C(=O)C1CCCCC1,1.2
21,O=C(O)/C=C/C(=O)c1ccc2c(c1)CCO2,> 4
22,CC(C)(C)OC(=O)NCCOC(=O)/C=C/C(=O)c1ccccc1,> 4
23,CC(=O)/C=C/C(=O)O,> 4

row,Compound,MIC [µg/mL]
1,CCN(C)C(=O)/C=C/C(=O)c1ccc(Cl)c(Cl)c1,0.24
2,CC(C)(C)OC(=O)NCCOC(=O)/C=C/C(=O)c1ccc2c(c1)OCO2,> 4
3,CC(C)OC(=O)/C=C/C(=O)c1ccc(Oc2ccccc2)cc1,1.69
4,CCOC(=O)/C=C/C(=O)c1ccccc1,0.82
5,CCCN(CCC)C(=O)/C=C/C(=O)c1cccc(F)c1,0.96
6,CCN(C)C(=O)/C=C/C(=O)c1ccccc1F,0.24
7,CCN(C)C(=O)/C=C/C(=O)c1ccc(OC)cc1,0.93
8,COC(=O)/C=C/C(=O)c1ccc(Br)cc1,0.49
9,CC(C)OC(=O)/C=C/C(=O)c1ccc2c(c1)CCO2,1.02
10,CCN(C)C(=O)/C=C/C(=O)c1ccc2c(c1)OCO2,> 2
11,COC(=O)/C=C/C(=O)c1ccc(-c2ccccc2)cc1,0.2
12,O=C(O)/C=C/C(=O)c1ccc(Br)cc1,> 4
13,CC(C)OC(=O)/C=C/C(=O)c1ccccc1,0.78
14,CCN(C)C(=O)/C=C/C(=O)c1cccc(Cl)c1,0.97
15,COc1ccc(C(=O)/C=C/C(=O)O)cc1OC,> 4
16,CCOC(=O)/C=C/C(=O)c1ccccc1OC,1.82
17,COc1ccc(C(=O)/C=C/C(=O)O)cc1,> 4
18,CCOC(=O)/C=C/C(=O)C1CCCCC1,> 4
19,COc1ccc(OC)c(C(=O)/C=C/C(=O)OCCNC(=O)OC(C)(C)C)c1,> 4
20,COC(=O)/C=C/C(=O)c1ccccc1OC,0.99
21,CN(C)C(=O)/C=C/C(=O)c1ccccc1Cl,0.84
22,CCN(C)C(=O)/C=C/C(=O)c1ccc(Cl)cc1,0.24
23,CN(C)C(=O)/C=C/C(=O)c1ccc([N+](=O)[O-])cc1,0.93

row,Compound,MIC [µg/mL]
1,O=C(O)/C=C/C(=O)c1ccco1,> 4
2,CCN(C)C(=O)/C=C/C(=O)c1ccccc1Cl,0.65
3,O=C(O)/C=C/C(=O)c1ccc([N+](=O)[O-])cc1,> 4
4,CC(C)OC(=O)/C=C/C(=O)C1CCCCC1,> 4
5,CC(C)OC(=O)/C=C/C(=O)c1ccc2c(c1)OCO2,0.87
6,CCCN(CCC)C(=O)/C=C/C(=O)c1ccc(-c2ccccc2)cc1,1.4
7,CC(C)(C)OC(=O)NCCOC(=O)/C=C/C(=O)c1ccc(-c2ccccc2)cc1,1.23
8,O=C(O)/C=C/C(=O)c1ccccc1,> 4
9,CCOC(=O)/C=C/C(=O)c1ccc(OC)c(OC)c1,0.82
10,CN(C)C(=O)/C=C/C(=O)c1cccc(F)c1,1.84
11,COc1cccc(C(=O)/C=C/C(=O)O)c1,> 4
12,CCOC(=O)/C=C/C(=O)C1CC1,> 4
13,CCOc1ccc(C(=O)/C=C/C(=O)OC)cc1,0.41
14,CCN(C)C(=O)/C=C/C(=O)c1ccccc1[N+](=O)[O-],0.24
15,O=C(O)/C=C/C(=O)C1CC1,> 4
16,CC(C)(C)OC(=O)NCCOC(=O)/C=C/C(=O)c1cccc2ccccc12,> 4
17,CN(C)C(=O)/C=C/C(=O)c1ccc2c(c1)OCO2,0.79
18,CCCN(CCC)C(=O)/C=C/C(=O)c1ccc2c(c1)OCO2,> 2
19,CCOC(=O)/C=C/C(=O)c1ccc(C)cc1,> 4
20,CC(C)(C)OC(=O)NCCOC(=O)/C=C/C(=O)C1CCCCC1,> 4
21,O=C(O)/C=C/C(=O)c1ccc(Cl)cc1Cl,> 4
22,CN(C)C(=O)/C=C/C(=O)c1cccc([N+](=O)[O-])c1,> 2
23,CC(C)(C)OC(=O)NCCOC(=O)/C=C/C(=O)c1ccc(Br)cc1,> 4

row,Compound,MIC [µg/mL]
1,CC(=O)/C=C/C(=O)OCCNC(=O)OC(C)(C)C,> 4
2,CN(C)C(=O)/C=C/C(=O)c1ccc(Cl)c(Cl)c1,0.84
3,CN(C)C(=O)/C=C/C(=O)c1ccc(Cl)cc1,0.38
4,CN(C)C(=O)/C=C/C(=O)c1ccc(F)cc1,0.47
5,CCN(C)C(=O)/C=C/C(=O)c1ccc(Cl)cc1Cl,> 2
6,CC(C)(C)OC(=O)NCCOC(=O)/C=C/C(=O)c1ccc([N+](=O)[O-])cc1,> 4
7,CCOC(=O)/C=C/C(=O)c1ccc(Cl)cc1Cl,1.09
8,CCCN(CCC)C(=O)/C=C/C(=O)c1cccc(OC)c1,> 2
9,CCOC(=O)/C=C/C(=O)c1ccc2c(c1)CCO2,0.94
10,CCN(C)C(=O)/C=C/C(=O)c1cccc(OC)c1,1.88
11,O=C(O)/C=C/C(=O)c1ccc(Oc2ccccc2)cc1,> 4
12,CC(C)(C)OC(=O)NCCOC(=O)/C=C/C(=O)c1ccc(Cl)cc1Cl,> 4
13,CCCN(CCC)C(=O)/C=C/C(=O)c1ccc(OC)cc1,1.89
14,COC(=O)/C=C/C(=O)c1cccc(OC)c1,0.39
15,CCOC(=O)/C=C/C(=O)c1cc(OC)ccc1OC,1.05
16,CN(C)C(=O)/C=C/C(=O)c1ccc(Cl)cc1Cl,0.41
17,COc1ccc(C(=O)/C=C/C(=O)OC(C)C)cc1OC,1.94
18,COC(=O)/C=C/C(=O)c1ccc(OC)c(OC)c1,0.44
19,Cc1ccc(C(=O)/C=C/C(=O)OC(C)C)cc1,0.77
20,COC(=O)/C=C/C(=O)c1ccccc1,0.86
21,CCN(C)C(=O)/C=C/C(=O)c1ccc(F)cc1,0.25
22,CC(C)OC(=O)/C=C/C(=O)c1ccc(Br)cc1,0.41
23,CCCN(CCC)C(=O)/C=C/C(=O)c1ccccc1[N+](=O)[O-],1.24

row,Compound,MIC [µg/mL]
1,CCCN(CCC)C(=O)/C=C/C(=O)c1cccc(Cl)c1,1.91
2,COc1ccc(C(=O)/C=C/C(=O)OCCNC(=O)OC(C)(C)C)cc1OC,> 4
3,CCCN(CCC)C(=O)/C=C/C(=O)c1cccc(Br)c1,> 2
4,CCN(C)C(=O)/C=C/C(=O)c1cccc(F)c1,0.48
5,O=C(O)/C=C/C(=O)c1ccc2c(c1)OCO2,> 4
6,CCOc1ccc(C(=O)/C=C/C(=O)OC(C)C)cc1,0.47
7,COC(=O)/C=C/C(=O)c1ccc2c(c1)CCO2,0.84
8,CC(C)OC(=O)/C=C/C(=O)c1ccc([N+](=O)[O-])cc1,0.5
9,COC(=O)/C=C/C(=O)c1cccc2ccccc12,0.45
10,CC(C)OC(=O)/C=C/C(=O)c1ccc(OCc2ccccc2)cc1,1.14
11,CCCN(CCC)C(=O)/C=C/C(=O)c1cccc([N+](=O)[O-])c1,> 2
12,CCOC(=O)/C=C/C(=O)c1ccc2c(c1)OCO2,0.49
13,CC(C)(C)OC(=O)NCCOC(=O)/C=C/C(=O)C1CC1,1.45
14,CCCN(CCC)C(=O)/C=C/C(=O)c1ccc(Cl)cc1Cl,> 2
15,CCOC(=O)/C=C/C(=O)c1ccc(OCC)cc1,0.54
16,O=C(O)/C=C/C(=O)c1ccc(OCc2ccccc2)cc1,> 4
17,CCOC(=O)/C=C/C(=O)c1cccc2ccccc12,0.61
18,CCOC(=O)/C=C/C(C)=O,3.51
19,CCCN(CCC)C(=O)/C=C/C(=O)c1ccccc1OC,> 2
20,CN(C)C(=O)/C=C/C(=O)c1ccccc1F,0.95
21,COC(=O)/C=C/C(=O)c1cc(OC)ccc1OC,0.88
22,CC(C)OC(=O)/C=C/C(=O)c1cccc2ccccc12,0.69
23,COc1ccccc1C(=O)/C=C/C(=O)OCCNC(=O)OC(C)(C)C,> 4

row,Compound,MIC [µg/mL]
1,CCOC(=O)/C=C/C(=O)c1ccc(Oc2ccccc2)cc1,1.52
2,CC(C)OC(=O)/C=C/C(=O)c1ccco1,0.65
3,CCCN(CCC)C(=O)/C=C/C(=O)c1ccc([N+](=O)[O-])cc1,1.89
4,COC(=O)/C=C/C(=O)c1ccco1,0.52
5,COC(=O)/C=C/C(=O)C1CC1,> 4
6,CC(C)OC(=O)/C=C/C(=O)c1ccc(Cl)cc1Cl,1.01
7,COC(=O)/C=C/C(C)=O,0.86
8,CCCN(CCC)C(=O)/C=C/C(=O)c1ccc(Cl)c(Cl)c1,0.88
9,COC(=O)/C=C/C(=O)c1ccc(Oc2ccccc2)cc1,0.87
10,COc1ccc(OC)c(C(=O)/C=C/C(=O)OC(C)C)c1,1.48
11,CN(C)C(=O)/C=C/C(=O)c1ccc(Br)cc1,0.25
12,CC(C)(C)OC(=O)NCCOC(=O)/C=C/C(=O)c1ccco1,> 4
13,COC(=O)/C=C/C(=O)c1ccc(Cl)cc1Cl,1.85
14,COc1ccc(C(=O)/C=C/C(=O)N(C)C)cc1,0.38
15,O=C(O)/C=C/C(=O)C1CCCCC1,> 4
16,CCOC(=O)/C=C/C(=O)c1cccc(OC)c1,0.82
17,COc1cccc(C(=O)/C=C/C(=O)N(C)C)c1,1.62
18,CCCN(CCC)C(=O)/C=C/C(=O)c1cccc(C(F)(F)F)c1,> 2
19,CN(C)C(=O)/C=C/C(=O)c1cccc(C(F)(F)F)c1,1.95
20,COc1cccc(C(=O)/C=C/C(=O)OC(C)C)c1,0.92
21,CCOC(=O)/C=C/C(=O)c1ccc(OC)cc1,0.46

# — ChEMBL document CHEMBL4330134, “Design, synthesis, and bioevaluation of a novel class of (E)-4-oxo-crotonamide derivatives as potent antituberculosis agents” (Bioorg Med Chem Lett, 2019)
